{
  "source": "patent US12310946B2",
  "about": "“Pharmaceutical composition for oral administration of edaravone and method of administering same” (MITSUBISHI TANABE PHARMA CORPORATION, priority 2020, dated 2025)",
  "key": {"[1]": {"assay": "Clinical study #3: PK of edaravone oral formulation (formula #3), fasted vs after high-fat, standard or light meal; analysis of variance", "assay_type": "in vivo, human", "details": "105 mg oral; for Cmax Max: in ng/mL; for AUC(0-inf) / Cmax / Tmax / half-life: male, human, plasma, po, 105 mg", "protocol": "Effects of meal consumption before administration of the edaravone oral formulation on the pharmacokinetics of edaravone were evaluated. Specifically, clinical studies #1, #2, and #3 described below were conducted on separate days in Japanese healthy adult male subjects. In each of clinical studies #1, #2, and #3, one dose each of edaravone oral formulations (edaravone suspensions) of formulas #1, #2, and #3 shown in Table 1 below were used respectively and administered orally once during the study period. For each clinical study, a reference study was conducted (reference example), in which the edaravone oral formulation was administered in fasted conditions as described below, and in each clinical study and the corresponding reference study, the edaravone oral formulation was each administered to the same subjects.\nFor the high-fat meal, a meal with total calories per meal of 800 to 1000 kilocalories and calorie intake from lipid of 50% was used. For the standard meal, a meal with total calories per meal of 400 to 500 kilocalories and calorie intake from lipid of 25% was used. For the light meal, a liquid-type nutritional supplement with total calories per meal of 250 kilocalories (enteral nutritional supplement: Ensure Liquid (trade name)) was used.\nAs examples, the edaravone oral formulation (formula #3) was administered orally to each subject of 8 hours after high-fat meal consumption, 4 hours after standard meal consumption, and 2 hours after light meal consumption. Blood samples were each collected before the administration, and 5 minutes, 15 minutes, 30 minutes, 45 minutes, 1 hour, 1.5 hours, 2 hours, 4 hours, 6 hours, 8 hours, 10 hours, 12 hours, 24 hours, 36 hours, and 48 hours after the administration, and the concentrations of unchanged edaravone in plasma were measured. In addition, as a comparative example, the edaravone oral formulation was administered orally to the same subjects 2 hours after standard meal consumption, blood samples were collected, and the concentrations of unchanged edaravone in plasma were measured in the same manner. On the other hand, as a reference example, the edaravone oral formulation was administered orally to the same subjects in fasted conditions, blood samples were collected, and the concentrations of unchanged edaravone in plasma were measured in the same manner. For the administration in fasted conditions, the edaravone oral formulation was administered orally after a lapse of 10 hours or longer from the previous meal consumption. None of the subjects consumed a next meal until the blood sample collection 4 hours after the administration was completed.\nThat is, from the results of the edaravone PK parameters, an analysis of variance was conducted on the AUC and Cmax in consideration of the meal condition. The spaghetti plots in FIG. 1 show results from individual subjects, in which results from the same subjects are connected with lines between results in the administration in fasted conditions and results in the postprandial administration."}, "[2]": {"assay": "Solubility of edaravone in water and BCS classification", "assay_type": "physicochemical", "protocol": "Since 1 g of edaravone requires 500 mL of water to dissolve, 105 mg of edaravone is calculated to require 52.5 mL of water. […] Thus, edaravone is regarded as a BCS Class 1 drug with high solubility and high permeability. These findings led to a brief that edaravone is a compound whose pharmacokinetics are not affected by meal consumption. […] Not only the presence or absence of a meal but also the types of meal cause differences in effects on the pharmacokinetics of edaravone, and suitable administration timing depends on each type of meal."}, "[3]": {"details": "2 h after standard meal vs fasted"}, "[4]": {"details": "4 h after standard meal vs fasted"}, "[5]": {"details": "8 h after high-fat meal vs fasted"}, "[6]": {"details": "formula #3, 2 h after light meal, mean (n = 16)"}, "[7]": {"details": "formula #3, 2 h after standard meal, mean (n = 16)"}, "[8]": {"details": "formula #3, 4 h after standard meal, mean (n = 16)"}, "[9]": {"details": "formula #3, 8 h after high-fat meal, mean (n = 16)"}, "[10]": {"details": "formula #3, fasted, mean (n = 16)"}},
  "note": "Read-outs that look alike come from different tables or passages of the source.",
  "data": [
    {"smiles": "CC1=NN(c2ccccc2)C(=O)C1", "note": "[Edaravone, 3-methyl-1-phenyl-2-pyrazolin-5-one]", "values": [
      {"measurement": "change in the AUC in comparison with fasted", "setting": "[1]; 2 h after light meal vs fasted", "result": "no decrease and →"},
      {"measurement": "change in the Cmax in comparison with fasted", "setting": "[1]; 2 h after light meal vs fasted", "result": "no decrease and →"},
      {"measurement": "decrease in the AUC in comparison with fasted", "setting": "[1]; [3]", "result": "(21% ↓)"},
      {"measurement": "decrease in the Cmax in comparison with fasted", "setting": "[1]; [3]", "result": "(45% ↓)"},
      {"measurement": "Cmax Min", "setting": "[1]; 2 hours after light meal", "result": 388, "unit": "ng/mL"},
      {"measurement": "Cmax Max", "setting": "[1]; 2 hours after light meal", "result": 3237},
      {"measurement": "change in the AUC in comparison with fasted", "setting": "[1]; [4]", "result": "no decrease and →"},
      {"measurement": "change in the Cmax in comparison with fasted", "setting": "[1]; [4]", "result": "no decrease and →"},
      {"measurement": "Cmax Min", "setting": "[1]; 4 hours after standard meal", "result": 642, "unit": "ng/mL"},
      {"measurement": "Cmax Max", "setting": "[1]; 4 hours after standard meal", "result": 4286},
      {"measurement": "change in the AUC in comparison with fasted", "setting": "[1]; [5]", "result": "no decrease and →"},
      {"measurement": "change in the Cmax in comparison with fasted", "setting": "[1]; [5]", "result": "no decrease and →"},
      {"measurement": "Cmax Min", "setting": "[1]; 8 hours after high-fat meal", "result": 595, "unit": "ng/mL"},
      {"measurement": "Cmax Max", "setting": "[1]; 8 hours after high-fat meal", "result": 5270},
      {"measurement": "Cmax Min", "setting": "[1]; fasted", "result": 797, "unit": "ng/mL"},
      {"measurement": "Cmax Max", "setting": "[1]; fasted", "result": 4816},
      {"measurement": "AUC(0-inf)", "setting": "[1]; 2 hours after light meal, analysis of variance, read-out: AUC0-∞ Least-square mean", "result": 1880, "unit": "ng·h/mL"},
      {"measurement": "Cmax", "setting": "[1]; 2 hours after light meal, analysis of variance, read-out: Cmax Least-square mean", "result": 1660, "unit": "ng/mL"},
      {"measurement": "Cmax", "setting": "[1]; 2 hours after light meal, read-out: Cmax Median", "result": 1960, "unit": "ng/mL"},
      {"measurement": "AUC(0-inf)", "setting": "[1]; 4 hours after standard meal, analysis of variance, read-out: AUC0-∞ Least-square mean", "result": 1990, "unit": "ng·h/mL"},
      {"measurement": "Cmax", "setting": "[1]; 4 hours after standard meal, analysis of variance, read-out: Cmax Least-square mean", "result": 1760, "unit": "ng/mL"},
      {"measurement": "Cmax", "setting": "[1]; 4 hours after standard meal, read-out: Cmax Median", "result": 1740, "unit": "ng/mL"},
      {"measurement": "AUC(0-inf)", "setting": "[1]; 8 hours after high-fat meal, analysis of variance, read-out: AUC0-∞ Least-square mean", "result": 2120, "unit": "ng·h/mL"},
      {"measurement": "Cmax", "setting": "[1]; 8 hours after high-fat meal, analysis of variance, read-out: Cmax Least-square mean", "result": 2190, "unit": "ng/mL"},
      {"measurement": "Cmax", "setting": "[1]; 8 hours after high-fat meal, read-out: Cmax Median", "result": 2240, "unit": "ng/mL"},
      {"measurement": "Cmax", "setting": "[1]; fasted and each postprandial administration alike, read-out: Cmax, median of values of each subject", "result": "~2000", "unit": "ng/mL"},
      {"measurement": "Cmax", "setting": "[1]; fasted and each postprandial administration alike, read-out: Cmax, range of values of each subject", "result": "1000 to 5000", "unit": "ng/mL"},
      {"measurement": "AUC(0-inf)", "setting": "[1]; fasted, analysis of variance, read-out: AUC0-∞ Least-square mean", "result": 2070, "unit": "ng·h/mL"},
      {"measurement": "Cmax", "setting": "[1]; fasted, analysis of variance, read-out: Cmax Least-square mean", "result": 2020, "unit": "ng/mL"},
      {"measurement": "Cmax", "setting": "[1]; fasted, read-out: Cmax Median", "result": 1990, "unit": "ng/mL"},
      {"measurement": "Tmax", "setting": "[1]; [6]", "result": 0.41, "unit": "h"},
      {"measurement": "half-life", "setting": "[1]; [6]", "result": 7.31, "unit": "h"},
      {"measurement": "AUC(0-inf)", "setting": "[1]; formula #3, 2 h after light meal, mean (n = 16), read-out: AUC0-∞", "result": 1960, "unit": "ng·h/mL"},
      {"measurement": "Cmax", "setting": "[1]; formula #3, 2 h after light meal, mean (n = 16), read-out: Cmax", "result": 1900, "unit": "ng/mL"},
      {"measurement": "Tmax", "setting": "[1]; [7]", "result": 0.63, "unit": "h"},
      {"measurement": "half-life", "setting": "[1]; [7]", "result": 11.2, "unit": "h"},
      {"measurement": "AUC(0-inf)", "setting": "[1]; formula #3, 2 h after standard meal, mean (n = 16), read-out: AUC0-∞", "result": 1720, "unit": "ng·h/mL"},
      {"measurement": "Cmax", "setting": "[1]; formula #3, 2 h after standard meal, mean (n = 16), read-out: Cmax", "result": 1280, "unit": "ng/mL"},
      {"measurement": "Tmax", "setting": "[1]; [8]", "result": 0.44, "unit": "h"},
      {"measurement": "half-life", "setting": "[1]; [8]", "result": 9.05, "unit": "h"},
      {"measurement": "AUC(0-inf)", "setting": "[1]; formula #3, 4 h after standard meal, mean (n = 16), read-out: AUC0-∞", "result": 2070, "unit": "ng·h/mL"},
      {"measurement": "Cmax", "setting": "[1]; formula #3, 4 h after standard meal, mean (n = 16), read-out: Cmax", "result": 2020, "unit": "ng/mL"},
      {"measurement": "Tmax", "setting": "[1]; [9]", "result": 0.36, "unit": "h"},
      {"measurement": "half-life", "setting": "[1]; [9]", "result": 7.38, "unit": "h"},
      {"measurement": "AUC(0-inf)", "setting": "[1]; formula #3, 8 h after high-fat meal, mean (n = 16), read-out: AUC0-∞", "result": 2210, "unit": "ng·h/mL"},
      {"measurement": "Cmax", "setting": "[1]; formula #3, 8 h after high-fat meal, mean (n = 16), read-out: Cmax", "result": 2520, "unit": "ng/mL"},
      {"measurement": "Tmax", "setting": "[1]; [10]", "result": 0.38, "unit": "h"},
      {"measurement": "half-life", "setting": "[1]; [10]", "result": 8.17, "unit": "h"},
      {"measurement": "AUC(0-inf)", "setting": "[1]; formula #3, fasted, mean (n = 16), read-out: AUC0-∞", "result": 2160, "unit": "ng·h/mL"},
      {"measurement": "Cmax", "setting": "[1]; formula #3, fasted, mean (n = 16), read-out: Cmax", "result": 2320, "unit": "ng/mL"},
      {"measurement": "water required to dissolve 105 mg of edaravone", "setting": "[2]; 105 mg of edaravone, calculated", "result": 52.5, "unit": "mL"},
      {"measurement": "water required to dissolve 1 g of edaravone", "setting": "[2]; 1 g of edaravone", "result": 500, "unit": "mL"},
      {"measurement": "solubility classification", "setting": "[2]; Biopharmaceutics Classification System", "result": "high solubility compound"},
      {"measurement": "solubility", "setting": "[2]; for example, water, read-out: saturation solubility of edaravone with respect to a dispersion medium", "result": "≤ 2000", "unit": "µg/mL"},
      {"measurement": "BCS class", "setting": "[2]; solubility and Caco-2 permeability", "result": "BCS Class 1"}
    ]}
  ]
}
